These results are taken from patent EP4722207A1, “OXOISOINDOLINYL-SUBSTITUTED TETRAHYDROPYRIMIDINEDIONE DERIVATIVE AND USE THEREOF” (Gluetacs Therapeutics (Shanghai) Co., Ltd., priority 2023, dated 2024).

Holding throughout (format): cell-based
What all share (settings): 24 hours of compound treatment, 50 nM and 500 nM

The target in one assay is T1, IKZF3 (Homo sapiens, UniProt Q96SW2+Q9UKT9).
T1 construct: effects of the compounds of the present disclosure on the expression of target proteins in cells; endogenous in cells; host or cells: human PBMCs (hPBMCs)
T1 sequence (Q9UKT9 whole entry): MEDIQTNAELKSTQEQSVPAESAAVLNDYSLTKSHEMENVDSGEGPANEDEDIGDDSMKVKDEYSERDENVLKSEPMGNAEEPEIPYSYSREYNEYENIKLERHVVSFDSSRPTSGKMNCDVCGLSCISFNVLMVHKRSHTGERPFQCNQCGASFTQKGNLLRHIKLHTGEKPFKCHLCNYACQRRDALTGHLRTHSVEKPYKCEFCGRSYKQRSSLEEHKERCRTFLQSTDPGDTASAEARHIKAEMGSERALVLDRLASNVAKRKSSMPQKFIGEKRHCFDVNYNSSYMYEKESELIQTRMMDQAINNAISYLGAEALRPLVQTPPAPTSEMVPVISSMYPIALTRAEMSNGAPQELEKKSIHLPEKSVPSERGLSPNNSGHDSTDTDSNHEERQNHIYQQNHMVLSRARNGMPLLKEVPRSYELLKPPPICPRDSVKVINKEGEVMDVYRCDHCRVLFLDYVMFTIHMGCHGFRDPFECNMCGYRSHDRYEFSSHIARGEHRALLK
T1 sequence (Q96SW2 whole entry): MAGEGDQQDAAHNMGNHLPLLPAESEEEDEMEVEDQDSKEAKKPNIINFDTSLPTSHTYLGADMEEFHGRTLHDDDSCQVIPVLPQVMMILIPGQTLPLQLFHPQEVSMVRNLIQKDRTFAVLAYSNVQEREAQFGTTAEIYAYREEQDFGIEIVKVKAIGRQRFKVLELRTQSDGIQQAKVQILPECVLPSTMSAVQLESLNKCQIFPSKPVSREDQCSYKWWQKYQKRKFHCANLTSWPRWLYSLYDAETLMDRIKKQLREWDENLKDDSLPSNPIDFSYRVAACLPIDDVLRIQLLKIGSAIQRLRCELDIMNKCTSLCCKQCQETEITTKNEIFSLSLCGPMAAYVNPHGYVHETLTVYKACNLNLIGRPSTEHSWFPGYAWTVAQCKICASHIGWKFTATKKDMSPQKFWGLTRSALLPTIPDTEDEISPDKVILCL
T1 sequence (Q16531 whole entry partner): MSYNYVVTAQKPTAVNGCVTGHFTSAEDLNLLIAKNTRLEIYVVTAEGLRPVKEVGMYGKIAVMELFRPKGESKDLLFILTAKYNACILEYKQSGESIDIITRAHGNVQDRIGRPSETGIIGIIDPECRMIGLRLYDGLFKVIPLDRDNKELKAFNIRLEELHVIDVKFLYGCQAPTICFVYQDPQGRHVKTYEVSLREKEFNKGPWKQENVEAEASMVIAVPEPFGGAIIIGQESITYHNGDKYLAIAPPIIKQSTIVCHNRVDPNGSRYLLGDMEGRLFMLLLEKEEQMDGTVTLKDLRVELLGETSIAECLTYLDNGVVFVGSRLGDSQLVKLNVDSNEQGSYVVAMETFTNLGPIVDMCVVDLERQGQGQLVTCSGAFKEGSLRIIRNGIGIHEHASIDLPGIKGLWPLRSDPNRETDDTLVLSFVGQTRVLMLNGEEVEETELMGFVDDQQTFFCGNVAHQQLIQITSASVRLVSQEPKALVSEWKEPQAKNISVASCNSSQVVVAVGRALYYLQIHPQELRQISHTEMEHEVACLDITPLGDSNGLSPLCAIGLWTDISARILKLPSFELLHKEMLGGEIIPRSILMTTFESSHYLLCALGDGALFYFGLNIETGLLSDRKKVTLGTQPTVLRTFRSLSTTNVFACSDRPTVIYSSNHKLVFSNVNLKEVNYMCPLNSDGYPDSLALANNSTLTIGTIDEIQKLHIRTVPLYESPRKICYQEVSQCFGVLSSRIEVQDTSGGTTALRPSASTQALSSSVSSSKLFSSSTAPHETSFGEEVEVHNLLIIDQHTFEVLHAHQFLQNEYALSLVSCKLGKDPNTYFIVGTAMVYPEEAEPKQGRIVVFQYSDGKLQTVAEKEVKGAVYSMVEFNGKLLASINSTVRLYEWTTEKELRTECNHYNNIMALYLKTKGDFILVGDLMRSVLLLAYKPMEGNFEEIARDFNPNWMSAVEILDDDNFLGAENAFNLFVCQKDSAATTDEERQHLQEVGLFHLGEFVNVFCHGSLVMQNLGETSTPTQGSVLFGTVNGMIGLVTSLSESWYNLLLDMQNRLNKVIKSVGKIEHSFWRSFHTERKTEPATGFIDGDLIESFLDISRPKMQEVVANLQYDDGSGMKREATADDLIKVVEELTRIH
Kind of assay: Western-blot assay, substrate protein degradation in hPBMCs: IKZF3.

For a further assay, the target named is T2, IKZF2 (Homo sapiens, UniProt Q96SW2+Q9UKS7).
T2 construct: effects of the compounds of the present disclosure on the expression of target proteins in cells; endogenous in cells; host or cells: human PBMCs (hPBMCs)
T2 sequence (Q9UKS7 whole entry): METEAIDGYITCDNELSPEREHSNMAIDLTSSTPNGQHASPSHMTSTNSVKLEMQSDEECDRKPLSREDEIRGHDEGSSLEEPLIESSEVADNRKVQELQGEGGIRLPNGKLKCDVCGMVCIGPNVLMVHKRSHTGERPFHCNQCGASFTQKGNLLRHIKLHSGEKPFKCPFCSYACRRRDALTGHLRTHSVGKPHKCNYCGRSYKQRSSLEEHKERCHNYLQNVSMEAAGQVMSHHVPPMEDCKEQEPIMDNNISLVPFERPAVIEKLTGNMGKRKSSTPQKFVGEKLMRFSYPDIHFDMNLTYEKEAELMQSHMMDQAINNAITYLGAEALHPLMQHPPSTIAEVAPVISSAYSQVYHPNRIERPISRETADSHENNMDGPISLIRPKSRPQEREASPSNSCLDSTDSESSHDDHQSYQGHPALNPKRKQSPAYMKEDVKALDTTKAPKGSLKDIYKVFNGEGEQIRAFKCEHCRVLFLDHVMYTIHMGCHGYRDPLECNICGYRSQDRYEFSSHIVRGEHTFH
T2 sequence (Q96SW2 whole entry): as the sequence (Q96SW2 whole entry) above
T2 sequence (Q16531 whole entry partner): as the sequence (Q16531 whole entry partner) above
Nature of the assay: Western-blot assay, substrate protein degradation in hPBMCs: IKZF2.

In a further assay the target is T3, GSPT1 (Homo sapiens, UniProt P15170+Q96SW2).
T3 construct: effects of the compounds of the present disclosure on the expression of target proteins in cells; endogenous in cells; host or cells: human PBMCs (hPBMCs)
T3 sequence (P15170 whole entry): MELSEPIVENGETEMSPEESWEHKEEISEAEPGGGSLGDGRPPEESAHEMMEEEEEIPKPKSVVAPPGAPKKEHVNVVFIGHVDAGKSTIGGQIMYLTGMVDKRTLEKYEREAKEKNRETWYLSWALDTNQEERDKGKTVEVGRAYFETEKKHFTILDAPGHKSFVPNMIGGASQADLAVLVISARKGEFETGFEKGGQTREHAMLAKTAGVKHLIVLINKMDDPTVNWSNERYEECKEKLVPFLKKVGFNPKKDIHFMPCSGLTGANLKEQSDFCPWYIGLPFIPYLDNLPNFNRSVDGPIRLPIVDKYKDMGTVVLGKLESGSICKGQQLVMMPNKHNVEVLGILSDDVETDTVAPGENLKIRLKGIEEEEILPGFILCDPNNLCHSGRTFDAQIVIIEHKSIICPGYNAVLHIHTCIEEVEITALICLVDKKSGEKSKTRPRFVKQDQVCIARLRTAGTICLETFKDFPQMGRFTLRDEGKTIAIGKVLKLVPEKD
T3 sequence (Q96SW2 whole entry): as the sequence (Q96SW2 whole entry) above
T3 sequence (Q16531 whole entry partner): as the sequence (Q16531 whole entry partner) above
Kind of assay: Western-blot assay, substrate protein degradation in hPBMCs: GSPT1.

The next assay has as its target T4, IKZF1 (Homo sapiens, UniProt Q13422+Q96SW2).
T4 construct: effects of the compounds of the present disclosure on the expression of target proteins in cells; endogenous in cells; host or cells: human PBMCs (hPBMCs)
Nature of the assay: Western-blot assay, substrate protein degradation in hPBMCs: IKZF1.

A further assay has as its target T5, WEE1 (Homo sapiens, UniProt P30291+Q96SW2).
T5 construct: effects of the compounds of the present disclosure on the expression of target proteins in cells; endogenous in cells; host or cells: human PBMCs (hPBMCs)
Kind of assay: Western-blot assay, substrate protein degradation in hPBMCs: WEE1.

In the next assay the target is T6, CK1α (Homo sapiens, UniProt P48729+Q96SW2).
T6 construct: effects of the compounds of the present disclosure on the expression of target proteins in cells; endogenous in cells; host or cells: human PBMCs (hPBMCs)
T6 sequence (P48729 whole entry): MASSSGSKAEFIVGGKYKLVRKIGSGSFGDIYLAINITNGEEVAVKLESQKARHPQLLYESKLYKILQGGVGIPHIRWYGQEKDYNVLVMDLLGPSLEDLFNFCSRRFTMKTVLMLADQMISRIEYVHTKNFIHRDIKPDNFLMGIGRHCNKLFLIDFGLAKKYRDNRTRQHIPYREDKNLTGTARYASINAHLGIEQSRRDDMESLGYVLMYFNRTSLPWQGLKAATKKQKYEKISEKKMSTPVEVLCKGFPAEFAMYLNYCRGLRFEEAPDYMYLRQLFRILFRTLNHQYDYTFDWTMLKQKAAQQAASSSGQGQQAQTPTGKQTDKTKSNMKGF
T6 sequence (Q96SW2 whole entry): as the sequence (Q96SW2 whole entry) above
T6 sequence (Q16531 whole entry partner): as the sequence (Q16531 whole entry partner) above
Nature of the assay: Western-blot assay, substrate protein degradation in hPBMCs: CK1α.

T5 sequence (P30291 whole entry): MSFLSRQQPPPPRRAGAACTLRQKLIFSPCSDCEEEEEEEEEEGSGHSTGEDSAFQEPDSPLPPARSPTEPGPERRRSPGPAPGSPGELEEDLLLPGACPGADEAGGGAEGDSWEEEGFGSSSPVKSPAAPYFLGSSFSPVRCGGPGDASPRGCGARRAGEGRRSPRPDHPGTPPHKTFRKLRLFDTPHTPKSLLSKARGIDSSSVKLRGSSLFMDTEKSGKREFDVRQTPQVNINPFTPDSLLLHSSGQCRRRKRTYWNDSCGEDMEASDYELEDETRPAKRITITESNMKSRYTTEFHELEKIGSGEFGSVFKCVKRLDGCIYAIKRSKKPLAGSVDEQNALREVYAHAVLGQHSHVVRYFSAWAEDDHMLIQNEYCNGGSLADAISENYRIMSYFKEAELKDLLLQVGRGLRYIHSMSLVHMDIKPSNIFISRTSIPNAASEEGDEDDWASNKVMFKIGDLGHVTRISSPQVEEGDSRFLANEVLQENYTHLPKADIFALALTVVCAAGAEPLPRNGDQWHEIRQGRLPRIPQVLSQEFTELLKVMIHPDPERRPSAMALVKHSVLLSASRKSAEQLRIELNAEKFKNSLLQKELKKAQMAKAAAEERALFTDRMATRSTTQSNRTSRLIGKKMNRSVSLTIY
T5 sequence (Q96SW2 whole entry): as the sequence (Q96SW2 whole entry) above
T5 sequence (Q16531 whole entry partner): as the sequence (Q16531 whole entry partner) above

Consider `O=C1CCN(N2Cc3cc(CN4CCC(c5cccc6cnccc56)CC4)ccc3C2=O)C(=O)N1` [GT-07644, 1-(5-((4-(isoquinolin-5-yl)piperidin-1-yl)methyl)-1-oxoisoindolin-2-yl)dihydropyrimidine-2,4(1H,3H)-dione], for which, on IKZF3, the “substrate protein remaining % IKZF3” value is on record as “B (80%< substrate protein remaining %≤ 100%)”. In addition, the “substrate protein remaining % IKZF2” value at IKZF2 is “B (80%< substrate protein remaining %≤ 100%)”. Moreover, the “substrate protein remaining % GSPT1” value at GSPT1 is given as “A (0% ≤ substrate protein remaining % ≤ 80%)”. In addition, on IKZF1, the “substrate protein remaining % IKZF1” value is listed as “B (80%< substrate protein remaining %≤ 100%)”. At WEE1, the “substrate protein remaining % WEE1” value is listed as “B (80%< substrate protein remaining %≤ 100%)”. On CK1α, the “substrate protein remaining % CK1α” value was “B (80%< substrate protein remaining %≤ 100%)”.
Consider `O=C1CCN(N2Cc3cc(CN4CCC(c5ccnc6cc(F)ccc56)CC4)ccc3C2=O)C(=O)N1` [GT-07645, 1-(5-((4-(7-fluoroquinolin-4-yl)piperidin-1-yl)methyl)-1-oxoisoindolin-2-yl)dihydropyrimidine-2,4(1H,3H)-dione], for which, on IKZF3, the “substrate protein remaining % IKZF3” value was “B (80%< substrate protein remaining %≤ 100%)”. For the same molecule, at IKZF2, the “substrate protein remaining % IKZF2” value is listed as “B (80%< substrate protein remaining %≤ 100%)”. The “substrate protein remaining % GSPT1” value at GSPT1 is listed as “A (0% ≤ substrate protein remaining % ≤ 80%)”. Moreover, the “substrate protein remaining % IKZF1” value on IKZF1 is reported as “A (0% ≤ substrate protein remaining % ≤ 80%)”. Further, on WEE1, the “substrate protein remaining % WEE1” value is on record as “B (80%< substrate protein remaining %≤ 100%)”. The “substrate protein remaining % CK1α” value at CK1α is on record as “B (80%< substrate protein remaining %≤ 100%)”.
In the case of `O=C1CCN(N2C(=O)c3ccc(CN4CCC(N5CCCc6cc(F)ccc65)CC4)cc3C2=O)C(=O)N1` [GT-07681, 2-(2,4-dioxotetrahydropyrimidin-1(2H)-yl)-5-((4-(6-fluoro-3,4-dihydroquinolin-1(2H)-yl)piperidin-1-yl)methyl)isoindoline-1,3-dione], the “substrate protein remaining % IKZF3” value at IKZF3 is reported as “B (80%< substrate protein remaining %≤ 100%)”. Besides, the “substrate protein remaining % IKZF2” value on IKZF2 is “B (80%< substrate protein remaining %≤ 100%)”. On GSPT1, the “substrate protein remaining % GSPT1” value is reported as “A (0% ≤ substrate protein remaining % ≤ 80%)”. In addition, on IKZF1, the “substrate protein remaining % IKZF1” value is given as “A (0% ≤ substrate protein remaining % ≤ 80%)”. In addition, on WEE1, the “substrate protein remaining % WEE1” value is listed as “B (80%< substrate protein remaining %≤ 100%)”. At CK1α, the “substrate protein remaining % CK1α” value is reported as “B (80%< substrate protein remaining %≤ 100%)”.
Take `O=C1CCN(N2C(=O)c3ccc(CN4CCC(N5CCOc6cc(F)ccc65)CC4)cc3C2=O)C(=O)N1` [GT-07682, 2-(2,4-dioxotetrahydropyrimidin-1(2H)-yl)-5-((4-(7-fluoro-2,3-dihydro-4H-benzo[b][1,4]oxazin-4-yl)piperidin-1-yl)methyl)isoindoline-1,3-dione]: the “substrate protein remaining % IKZF3” value at IKZF3 was “B (80%< substrate protein remaining %≤ 100%)”. For the same molecule, the “substrate protein remaining % IKZF2” value at IKZF2 is “B (80%< substrate protein remaining %≤ 100%)”. Also, on GSPT1, the “substrate protein remaining % GSPT1” value is given as “A (0% ≤ substrate protein remaining % ≤ 80%)”. Besides, the “substrate protein remaining % IKZF1” value at IKZF1 was “B (80%< substrate protein remaining %≤ 100%)”. Besides, on WEE1, the “substrate protein remaining % WEE1” value is recorded as “B (80%< substrate protein remaining %≤ 100%)”. In addition, the “substrate protein remaining % CK1α” value at CK1α is listed as “B (80%< substrate protein remaining %≤ 100%)”.
As to `O=C1CCN(N2C(=O)c3ccc(CN4CCC(N5C(=O)COc6cc(F)ccc65)CC4)cc3C2=O)C(=O)N1` [GT-07683, 2-(2,4-dioxotetrahydropyrimidin-1(2H)-yl)-5-((4-(7-fluoro-3-oxo-2,3-dihydro-4H-benzo[b][1,4]oxazin-4-yl)piperidin-1-yl)methyl)isoindoline-1,3-dione], on IKZF3, the “substrate protein remaining % IKZF3” value is listed as “B (80%< substrate protein remaining %≤ 100%)”. Further, the “substrate protein remaining % IKZF2” value on IKZF2 was “B (80%< substrate protein remaining %≤ 100%)”. For the same molecule, the “substrate protein remaining % GSPT1” value on GSPT1 is on record as “A (0% ≤ substrate protein remaining % ≤ 80%)”. For the same molecule, at IKZF1, the “substrate protein remaining % IKZF1” value is recorded as “B (80%< substrate protein remaining %≤ 100%)”. Besides, on WEE1, the “substrate protein remaining % WEE1” value is “B (80%< substrate protein remaining %≤ 100%)”. Further, the “substrate protein remaining % CK1α” value at CK1α is on record as “B (80%< substrate protein remaining %≤ 100%)”.
Regarding `O=C1CCN(N2C(=O)c3ccc(CN4CCC(C5CCOc6cc(F)ccc65)CC4)cc3C2=O)C(=O)N1` (stereo not drawn) [GT-07684, 2-(2,4-dioxotetrahydropyrimidin-1(2H)-yl)-5-((4-(7-fluorochroman-4-yl)piperidin-1-yl)methyl)isoindoline-1,3-dione], the “substrate protein remaining % IKZF3” value on IKZF3 is given as “B (80%< substrate protein remaining %≤ 100%)”. For the same molecule, the “substrate protein remaining % IKZF2” value at IKZF2 is listed as “B (80%< substrate protein remaining %≤ 100%)”. Also, the “substrate protein remaining % GSPT1” value at GSPT1 is on record as “A (0% ≤ substrate protein remaining % ≤ 80%)”. Moreover, on IKZF1, the “substrate protein remaining % IKZF1” value is reported as “B (80%< substrate protein remaining %≤ 100%)”. The “substrate protein remaining % WEE1” value at WEE1 was “B (80%< substrate protein remaining %≤ 100%)”. The “substrate protein remaining % CK1α” value on CK1α is “B (80%< substrate protein remaining %≤ 100%)”.
In the case of `O=C1CCN(N2C(=O)c3ccc(CN4CCC(=C5CCOc6cc(F)ccc65)CC4)cc3C2=O)C(=O)N1` [GT-07685, 2-(2,4-dioxotetrahydropyrimidin-1(2H)-yl)-5-((4-(7-fluorochroman-4-ylidene)piperidin-1-yl)methyl)isoindoline-1,3-dione], the “substrate protein remaining % IKZF3” value on IKZF3 is on record as “B (80%< substrate protein remaining %≤ 100%)”. Moreover, the “substrate protein remaining % IKZF2” value at IKZF2 is given as “B (80%< substrate protein remaining %≤ 100%)”. The “substrate protein remaining % GSPT1” value at GSPT1 was “A (0% ≤ substrate protein remaining % ≤ 80%)”. Besides, the “substrate protein remaining % IKZF1” value on IKZF1 was “B (80%< substrate protein remaining %≤ 100%)”. Also, the “substrate protein remaining % WEE1” value at WEE1 was “B (80%< substrate protein remaining %≤ 100%)”. Besides, on CK1α, the “substrate protein remaining % CK1α” value is “B (80%< substrate protein remaining %≤ 100%)”.
On to `O=C1CCN(N2C(=O)c3ccc(CN4CCC(c5cccc6c(F)cccc56)CC4)cc3C2=O)C(=O)N1` [GT-07686, 2-(2,4-dioxotetrahydropyrimidin-1(2H)-yl)-5-((4-(5-fluoronaphthalen-1-yl)piperidin-1-yl)methyl)isoindoline-1,3-dione], for which the “substrate protein remaining % IKZF3” value on IKZF3 is reported as “B (80%< substrate protein remaining %≤ 100%)”. For the same molecule, the “substrate protein remaining % IKZF2” value at IKZF2 is “B (80%< substrate protein remaining %≤ 100%)”. The “substrate protein remaining % GSPT1” value on GSPT1 was “A (0% ≤ substrate protein remaining % ≤ 80%)”. Besides, the “substrate protein remaining % IKZF1” value at IKZF1 is recorded as “B (80%< substrate protein remaining %≤ 100%)”. Also, the “substrate protein remaining % WEE1” value at WEE1 is “B (80%< substrate protein remaining %≤ 100%)”. Moreover, on CK1α, the “substrate protein remaining % CK1α” value was “B (80%< substrate protein remaining %≤ 100%)”.
As for `O=C1CCN(N2C(=O)c3ccc(CN4CC=C(c5cccc6c(F)cccc56)CC4)cc3C2=O)C(=O)N1` [GT-07687, 2-(2,4-dioxotetrahydropyrimidin-1(2H)-yl)-5-((4-(5-fluoronaphthalen-1-yl)-3,6-dihydropyridin-1(2H)-yl)methyl)isoindoline-1,3-dione], on IKZF3, the “substrate protein remaining % IKZF3” value is on record as “B (80%< substrate protein remaining %≤ 100%)”. For the same molecule, the “substrate protein remaining % IKZF2” value on IKZF2 is recorded as “B (80%< substrate protein remaining %≤ 100%)”. Further, on GSPT1, the “substrate protein remaining % GSPT1” value was “A (0% ≤ substrate protein remaining % ≤ 80%)”. The “substrate protein remaining % IKZF1” value at IKZF1 is listed as “B (80%< substrate protein remaining %≤ 100%)”. In addition, the “substrate protein remaining % WEE1” value on WEE1 is “B (80%< substrate protein remaining %≤ 100%)”. Moreover, the “substrate protein remaining % CK1α” value on CK1α is listed as “B (80%< substrate protein remaining %≤ 100%)”.
With `O=C1CCN(N2C(=O)c3ccc(CN4CCC(c5cccc6cnccc56)CC4)cc3C2=O)C(=O)N1` [GT-07688, 2-(2,4-dioxotetrahydropyrimidin-1(2H)-yl)-5-((4-(isoquinolin-5-yl)piperidin-1-yl)methyl)isoindoline-1,3-dione], the “substrate protein remaining % IKZF3” value at IKZF3 is reported as “B (80%< substrate protein remaining %≤ 100%)”. In addition, the “substrate protein remaining % IKZF2” value on IKZF2 is “B (80%< substrate protein remaining %≤ 100%)”. The “substrate protein remaining % GSPT1” value at GSPT1 is “A (0% ≤ substrate protein remaining % ≤ 80%)”. Moreover, the “substrate protein remaining % IKZF1” value on IKZF1 is “B (80%< substrate protein remaining %≤ 100%)”. For the same molecule, the “substrate protein remaining % WEE1” value on WEE1 is given as “B (80%< substrate protein remaining %≤ 100%)”. Besides, the “substrate protein remaining % CK1α” value at CK1α is “B (80%< substrate protein remaining %≤ 100%)”.
In the case of `O=C1CCN(N2C(=O)c3ccc(CN4CCC(c5ccnc6cc(F)ccc56)CC4)cc3C2=O)C(=O)N1` [GT-07689, 2-(2,4-dioxotetrahydropyrimidin-1(2H)-yl)-5-((4-(7-fluoroquinolin-4-yl)piperidin-1-yl)methyl)isoindoline-1,3-dione], the “substrate protein remaining % IKZF3” value at IKZF3 is on record as “B (80%< substrate protein remaining %≤ 100%)”. In addition, the “substrate protein remaining % IKZF2” value at IKZF2 was “B (80%< substrate protein remaining %≤ 100%)”. The “substrate protein remaining % GSPT1” value at GSPT1 is recorded as “A (0% ≤ substrate protein remaining % ≤ 80%)”. For the same molecule, the “substrate protein remaining % IKZF1” value on IKZF1 was “B (80%< substrate protein remaining %≤ 100%)”. In addition, the “substrate protein remaining % WEE1” value at WEE1 was “B (80%< substrate protein remaining %≤ 100%)”. The “substrate protein remaining % CK1α” value at CK1α is listed as “A (0% ≤ substrate protein remaining % ≤ 80%)”.
